Data reported in patent US20050214285A1, “Epitopes or mimotopes derived from the C-epsilon-3 or C-epsilon-4 domains of IgE, antagonists thereof, and their therapeutic uses” (SmithKline Beecham Biologicals, s.a. and Peptide …, priority 1999, published 2005).

tested on: PTmAb0005; test: Phage display ranking of peptide ligands for PTmAb0005; format: binding; conditions: IgEC67-8 mutants (Table 9)
Experimental: (§1) Phage display libraries were used to map the binding sites of the monoclonal antibodies using three different phage libraries, displaying either the XCX15, XCX10 or XAX10 peptide sequence (where X is any amino acid) at the N-terminus of the phage gVIIIp. Tables 6 and 7 show the results of selecting for peptide ligands with the anti human IgE monoclonal antibodies […]. […]
This was performed by introducing random mutations by PCR mutagenesis and sub-cloning into the Fuse 5 vector for minor filamentous phage protein gIIIp display. These, and other results, confirmed the importance of the amino acids within IgEC67 which aligned with the Cε2 epitope. […] Mutations in other sites had little effect on the affinity to PTmAb0005.
(§2) This involved a DNA sub-cloning transfer from the major coat protein (gVIIIp) filamentous phage display vector to a lower copy number minor phage coat protein (gIIIp) display vector with a random PCR step. […] Included in the tables are ranking orders and also BIAcore affinities where available.

Sequence | Rel. Rank A | Rel. Rank B
ADGAECFINKQMADRELCAREVAEA [Peptide 2-12, IgEC67-8 mutant clone] | 1.22 | 1.50
ADGAECFINKQRADLELCPGEAAEA [4-2,4-3, IgEC67-8 mutant clone] | 1.11 | 1.60
ADGAECFINRQMADLELCGREAAEA [Peptide 4-4, IgEC67-8 mutant clone] | 0.69 | 1.03
ADGAGCFIDKQMADLELCPRAAAEA [1-9,2-5, IgEC67-8 mutant clone] | 1.21 | 1.41
ADGAGCFIEKQMADMELCQARAAEA [Peptide 1-8, IgEC67-8 mutant clone] | 1.08 | 1.32
ADGAGCFIEKQMADMELCQRETAEA [Peptide 1-1, IgEC67-8 mutant clone] | 1.04 | 1.29
ADGAGCFIKKQMADLELCPREAWEA [Peptide 4-1, IgEC67-8 mutant clone] | 1.24 | 1.52
ADGAGCFINKQMADLELCPARAAEA [Peptide 1-7, IgEC67-8 mutant clone] | 0.91 | 1.25
ADGAGCFINKQMADLELCPREAAEA [2-8,1-13,4-11,1-14, IgEC67-8 sub-library clone] | 1.00 | 1.00
ADGAGCFINKQMADLELCPREGAEA [1-4,1-2,1-12, IgEC67-8 mutant clone] | 1.37 | 1.39
ADGAGCFINKQMADLELCPRQAAEA [3-1,3-9,3-10, IgEC67-8 mutant clone] | 1.54 | 1.85
ADGAGCFINKQMADLELCPSQAAEA [Peptide 4-9, IgEC67-8 mutant clone] | 1.38 | 1.70
ADGAGCFINKQMADLELCRREAGEA [2-9,2-6, IgEC67-8 mutant clone] | 1.19 | 1.54
ADGAGCFINKQMADLELCTREAAEA [Peptide 3-11, IgEC67-8 mutant clone] | 1.54 | 2.02
ADGAGCFINKQMADMELCPREAAEA [Peptide 2-3, IgEC67-8 mutant clone] | 1.03 | 1.31
ADGAGCFINKQMADSELCPAAAAEA [Peptide 1-10, IgEC67-8 mutant clone] | 1.10 | 1.08

Sequence | Rel. Rank A | Rel. Rank B
ADGAGCFINKQMADSELCPREPAEA [Peptide 5-16, IgEC67-8 mutant clone] | 1.29 | 1.83
ADGAGCFINKQMADWELCPREAAEA [Peptide 5-10, IgEC67-8 mutant clone] | 1.05 | 1.83
ADGAGCFINKQMADWELCPREGAEA [Peptide 2-15, IgEC67-8 mutant clone] | 1.44 | 1.57
ADGAGCFINKQMSDFELCPREAGEA [Peptide 2-13, IgEC67-8 mutant clone] | 1.56 | 2.14
ADGAGCFINMQMADQELCPRAAAEA [Peptide 1-3, IgEC67-8 mutant clone] | 1.73 | 1.31
ADGAGCFINNQMADLELCPREAAEA [Peptide 5-2, IgEC67-8 mutant clone] | 1.04 | 1.24
ADGAGCFINNQMADLELCPRGGAEA [Peptide 1-11, IgEC67-8 mutant clone] | 1.45 | 1.32
ADGAGCFINRQLADMELCSRGAAEA [2-11,2-4,2-10,2-7, IgEC67-8 mutant clone] | 0.79 | 1.39
ADGAGCFINRQMADPELCPREAAEA [Peptide 5-11, IgEC67-8 mutant clone] | 1.09 | 1.97
ADGAGCFISPQLADWKRCMREAAEA [6-9,5-1,6-2,6-8,6-4] | 1.53 | 1.19
ADGAGCFKNKQMVDSELCARQAAEA [Peptide 1-16, IgEC67-8 mutant clone] | 1.14 | 1.17
ADGAGCFQNKQMADLELCPREAAEA [Peptide 1-5, IgEC67-8 mutant clone] | 1.13 | 1.73
ADGAGCFRNKQMADLELCPREAAEA [Peptide 1-6, IgEC67-8 mutant clone] | 0.95 | 1.16
ADGAGCSIHRQMADWERCLREGAEA [Peptide 6-10] | 0.91 | 0.69
ADGAGCSIHTQMADWERCLREGAEA [6-12,5-8] | 0.93 | 0.67

same assay, conditions: primary phage display biopannings (Table 6)

Sequence | Rank (ECL) PTmAb0005
AENDQMVDWEI [SB21/33/31] | 0
CAPGMGCWESVK [ESB13] | 0
CCESDIPLNELHALADP [IgEC70] | 0
CCEVDDFPTHHPGWTLR [ESC4] | 0
CCITDVPQGVMYKGSPD [ESC18] | 0
CCKSDIPSPVTQFNTMK [IgEC64] | 0
CCLSDDAPTLPVRR [IgEC75] | 0
CCMADQELDLGHNAANA [ESC20] | 0
CCMSDTPDISRLPVPDS [IgEC72] | 0
CCMTDDPMDPNSTWAIR [ESC12] | 0
CCMTDDPMYTNSTWAIR [ESC43] | 0
CCQRDVELVFGS [ESD38] | 0
CCRADFEVGNGG [ESD15] | 0
CCVDDTPNSGLAMRVSK [ESC1] | 0
CCVMDIEVRGSA [ESD14] | 0
CCVMDLELASGF [ESD36] | 0
CCVSDEPAGVRD [ESD6/10/40] | 0

Sequence | Rank (ECL) PTmAb0005
CQAMDAEILNQV [ESB12] | 0
ECKVDGQLSDSPLLRNN [ESC45] | 0
ECRGPNMQMQDHCPTTD [IgEC9] | 10
GGWQESDIPGR [ESB32] | 0
GQMMDTELLNR [ESB1/6etc] | 0
HCCRIDREVSGA [ESB24] | 0
HCKNEFKKGQWTYSCSD [IgEC43] | 0
QIDRQITDTLL [ESB15] | 0
REQQISDVPRV [ESB26] | 0
RGRNQIMDLEI [ESB29/36] | 0
SCNLNHQSCDIPPVKQI [ESC46] | 0
SMEGQVRDIQV [ESB7] | 0
SMGQEVDRELV [ESB40] | 0
SMGQKVDRELV [ESB9] | 0
TCCVTDIPPPDYEQSLG [IgEC83] | 0
YQQRDLELLAE [ESB18] | 0

tested on: PTmAb0011; test: Phage display ranking of peptide ligands for PTmAb0011; format: binding, mouse; conditions: primary phage display biopannings (Table 7)
Description: as §1, §2

Sequence | Rank (ECL) PTmAb0011
ACFSRNGQVTDVPHSCY [EEC41] | 31
DCEEPMCSPVLLQKLKP [EEC17/47/25] | 147
DCLSKGQMADLC [EED147/173] | 281
DCVVDGDRLVCL [EED34/104] | 3
ECNQNLSGSLRHVDLNC [EEC40] | 547
ECPRWPLMGDGC [EED139] | 26
FCPEPICSPPLSRMTLS [EEC147] | 883
